# Laboratory results: patent publication US8652836B2, “Defective ribosomal products in blebs (DRibbles) and methods of use to stimulate an immune response” (Providence Health System, priority 2005, dated 2014)
# Square brackets hold non-standard residues; d marks the D form. Peptide text beside a SMILES is read from it. * marks the point of attachment. Nle = CCCC[C@H](N)C(=O)O; Cbz = O=C(OCc1ccccc1)*
# Experiments:
# [1] = tested on: 293T tumor cells expressing V-GFP-TfR-OVA; test: In vitro cross-presentation of treated tumor cells by DC to OT-I T cells (CFSE dilution); format: cell-based, human; settings: tumor cells treated as in Example 2, irradiated; FIG. 3
# Protocol: (§1) The autophagy inhibitor […] (3-MA) and the autophagy inducer rapamycin were used to modulate autophagy and observe their effect on human 293T tumor cells expressing V-GFP-TfR-OVA fusion (a peptide containing mutated ubiquitin, GFP (green fluorescent protein), the transmembrane domain of transferrin receptor and chicken ovalbumin). In addition 10 mM NH4Cl was used to inhibit lysosome mediated protein degradation. Cells expressing V-GFP-TfR-OVA were either untreated, treated with 10 mM 3-MA for 24 hours, treated with 10 mM 3-MA and 1 μM Velcade for 24 hours, 50 nM rapamycin for 24 hours, 50 nM rapamycin and 1 μM Velcade for 24 hours, 10 mM NH4Cl for 24 hours, or with 1 μM Velcade and 10 mM NH4Cl for 24 hours. Cell lysates were prepared by resuspending pelleted cells in SDS containing sample lysis buffer and subjected to western blot analysis with anti-GFP antibody.
# (§2) 293T tumor cells expressing V-GFP-TfR-OVA were treated as described in Example 2, and used as the source of antigens for cross-presentation in vitro after irradiation (15,000 rad). One million tumor cells were incubated with two million DC for 6 hours before the addition of CFSE labeled naïve T cells from OT-I transgenic mice that recognize peptides derived from OVA protein. The OT-I division as indicated by dilution of CFSE label was used as the readout.
# [2] = tested on: human 293T tumor cells expressing V-GFP-TfR-OVA fusion; test: Western blot of fusion protein with anti-GFP antibody; format: cell-based; settings: for full-length and short fragments of fusion proteins: 10 mM 3-MA, 1 μM Velcade, 10 mM NH4Cl, compared to untreated control cells
# Protocol: as §1
# F10 melanoma cells = test: Secretion of DRibbles by tumor cells treated with proteasome inhibitor (microscopy); format: cell-based, mouse; settings: 5 μg/ml, 24 hours; FIG. 1A
# Protocol: To prepare tumor-derived DRibbles, one T-150 flask of cultured tumor cells at about 80% confluence (about 30 million cells per flask) were treated for 24 hours with reversible proteasome inhibitor MG132 (5 μg/ml) or ALLN (5 μg/ml) to block proteasome-mediated degradation of ubiquitinated proteins. […] Culture supernatant was collected in a 50 ml conical tube 48 hours later, and whole tumor cells and large cell debris removed by a low speed centrifugation (250 g for 10 minutes) (FIG. 1B). The resulting supernatant was further centrifuged at a high speed (10,000 g for 15 minutes) to pellet DRibbles. The pellets (containing the DRibbles, see FIG. 1C) were washed once by re-suspending in PBS (20 ml) and pelleting at high speed as above. The washed pellets were resuspended in 300 μl PBS (10 μl DRibble=1 million cells) and snap frozen in liquid nitrogen and kept at −80° C. in small aliquots until use.
# [3] = under refrigeration; cited from earlier work
# [4] = oral administration; cited from earlier work
# RMA tumor cells = test: Priming of gag-specific CD8 T cells by RMA tumor cells, intracellular IFN-γ; format: in vivo, mice; settings: RMA cells treated 5 μM 24 hours
# Protocol: Seven days later, spleen cells were restimulated with either irrelevant D^b binding peptide or the dominant epitope of gag in the presence of blocker of ER/Golgi (brefeldin A) for 6 hours. The percentage of CD8 T cells produced intracellular IFN-γ was then determined by intracellular staining and flow cytometry analysis with antibodies against CD3, CD8, and IFN-γ.
# 293T tumor cells = test: Fluorescence microscopy of GFP-OVA / GFP-LC3 transfected cells; format: cell-based, human; settings: 1 μM
# Protocol: 293T tumor cells were transfected with plasmids encoding Ub-M-GFP-OVA, GFP-LC3 fusion protein, or GFP-LC3 and tdTomato-Ub proteins. Transfected cells were treated with 1 μM Velcade 24 hours later. GFP-OVA or GFP-LC3 fusion proteins were used to visualize the antigens or autophagy membrane in the DRibbles using fluorescence microscopy. Co-tranfection of GFP-LC3 and tdTomato-Ub fusion plasmids was used to visualize accumulation of ubiquitinated DRiPs inside LC3 decorated DRibbles.
# [5] = tested on: 293T cell lines expressing GFP-OVA fusion proteins; test: Western blot of DRibble lysates; format: cell-based, human
# Protocol: Lysates (10 μg) were prepared from DRibbles generated from 293T cell lines expressing different versions of GFP-OVA fusion proteins after Velcade treatment. The lysates were probed with antibodies against GFP, LC3, calrecticulin, HSP90α (cytosolic), and ubiquitin.
# [6] = tested on: 293T cells expressing V-GFP-TfR-OVA fusion protein; test: Western blot of fusion protein after HSP90 inhibitor and Velcade; format: cell-based, human; settings: 1 μM Velcade 6 hours; 10 μM 17-AAD 16 hour
# [7] = tested on: 293T cells expressing V-GFP-TfR-OVA fusion protein; test: Cross-presentation of HSP90 inhibitor treated cells; format: cell-based, human; settings: Velcade added to 17-AAD treated cells
# Protocol: as §2
# Cross-presentation is analyzed as described in Example 5.
# LC3 = test: Western blot analysis of LC-3 (autophagy marker); format: cell-based, human; settings: 1 μM overnight, 293T cells
# Protocol: To confirm whether Velcade induced autophagy, Western blot analysis of LC-3 was performed. LC3 is an autophagy marker; it converts from its LC3-I-nonlipidated form to the PE-conjugated form LC3-II. 293T were treated with 1 μM Velcade overnight and total cell lysates were subjected to Western blot analysis with anti-LC3 polyclonal antibody.
compound,measurement,setting,value
"Cn1cnc(=N)c2ncn([C@@H]3O[C@H](CO)[C@@H](O)[C@H]3O)c21 [3-MA, 3-methyladenosine]","cross-presentation (OT-I division, CFSE dilution)",[1],severely curtailed
same,full-length and short fragments of fusion proteins,[2]; 24 hours,both full-length and short fragments of fusion proteins were increased
"CCCC[C@@H](C=O)NC(=O)[C@H](CC(C)C)NC(=O)[C@H](CC(C)C)NC(C)=O [ALLN, N-Acetyl-Leu-Leu-norleucinal] (Ac-Leu-Leu-[Nle]-aldehyde)",formation of prenuclear vacuoles and secretion of DRibbles,F10 melanoma cells,induced formation of prenuclear vacuoles and secretion of DRiPs containing blebs (DRibbles)
"O.O=P1(N(CCCl)CCCl)NCCCO1 (stereo not shown) [Cyclophosphamide, 2-[bis(2-chloroethyl)amino]tetrahydro-2H-1,3,2 oxazaphosphorine 2-oxide monohydrate]",stability of reconstituted solution,[3],six
same,bioavailability,[4],greater than 75%
"CC(C)C[C@@H](C=O)NC(=O)[C@H](CC(C)C)NC(=O)[C@H](CC(C)C)NC(=O)OCc1ccccc1 [MG-132, carbobenzyloxy-L-leucyl-L-leucyl-L-leucinal] (Cbz-Leu-Leu-Leu-aldehyde)","percentage of IFN-γ-producing CD8 T cells, background",RMA tumor cells; background,0.29%
same,percentage of IFN-γ-producing CD8 T cells,RMA tumor cells; spleen cells seven days later restimulated with dominant epitope of gag,1.74%
Cl.N [NH4Cl],"cross-presentation (OT-I division, CFSE dilution)",[1],moderate increase of cross-presentation
same,full-length and short fragments of fusion proteins,[2]; 24 hours,even greater stabilizing effect of shorter fragments
same,antigen / protein level detected by Western blot,[2]; as restated with the cross-presentation results,increased protein level
"CC(C)C[C@H](NC(=O)[C@H](Cc1ccccc1)NC(=O)c1cnccn1)B(O)O [Velcade, N-pyrazinecarbonyl-L-phenylalanine-L-leucineboronic acid]",formation of punctate structures,293T tumor cells,led to formation of cell-associated punctate positive for GFP-OVA or GFP-LC3
same,GFP-OVA fusion protein in DRibbles,[5],resulted in large amount GFP-OVA fusion protein in the DRibbles
same,short-fragments of GFP-TfR-OVA fusion proteins,[6],dramatically increased
same,DRiPs and cross-presentation,[7],rescued DRiPs but not cross-presentation
same,autophagy induction (LC3-I and LC3-II),LC3,induced autophagy in 293T cells
same,amount of short fragments,"[2]; 1 μM Velcade in the presence of 50 nM rapamycin, 24 hours",slightly increased the amount of short fragments
